Results published in PubChem BioAssay (NCI).
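Step 1: Grow cells in 96-well plates. Step 2: Expose to compound for 48 hours at 5 concentrations. Step 3: Interpolate endpoints linearly; if unreached, use highest concentration. TGI denotes the concentration required for complete inhibition of growth.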

Experiments:
Experiment in all cases: inhibition of tumour cell growth, NCI panel, 48 h
SK-MEL-28 melanoma = test system: SK-MEL-28 melanoma
NCI-H522 lung = test system: NCI-H522 lung
HCT-15 colon = test system: HCT-15 colon
786-0 renal = test system: 786-0 renal
SF-295 CNS = test system: SF-295 CNS
EKVX NSCLC = test system: EKVX NSCLC
A549 NSCLC = test system: A549 NSCLC
SW-620 colon = test system: SW-620 colon
HCT-116 colon = test system: HCT-116 colon
OVCAR-8 ovarian = test system: OVCAR-8 ovarian
OVCAR-3 ovarian = test system: OVCAR-3 ovarian
MDA-MB-435 = test system: MDA-MB-435
U251 CNS = test system: U251 CNS
NCI-H226 lung = test system: NCI-H226 lung
KM12 colon = test system: KM12 colon
HT29 colon = test system: HT29 colon
M14 melanoma = test system: M14 melanoma
OVCAR-5 ovarian = test system: OVCAR-5 ovarian
TK-10 renal = test system: TK-10 renal
BT-549 breast = test system: BT-549 breast
ACHN renal = test system: ACHN renal
A498 renal = test system: A498 renal
MALME-3M melanoma = test system: MALME-3M melanoma
CCRF-CEM leukemia = test system: CCRF-CEM leukemia
SK-MEL-5 melanoma = test system: SK-MEL-5 melanoma
UACC-62 melanoma = test system: UACC-62 melanoma
NCI-H23 lung = test system: NCI-H23 lung
UACC-257 melanoma = test system: UACC-257 melanoma
COLO 205 colon = test system: COLO 205 colon
IGROV1 ovarian = test system: IGROV1 ovarian
NCI/ADR-RES ovarian = test system: NCI/ADR-RES ovarian
HCC-2998 colon = test system: HCC-2998 colon
UO-31 renal = test system: UO-31 renal
DU-145 prostate = test system: DU-145 prostate
RPMI-8226 leukemia = test system: RPMI-8226 leukemia
K-562 leukemia = test system: K-562 leukemia
HOP-62 NSCLC = test system: HOP-62 NSCLC
RXF 393 renal = test system: RXF 393 renal
CAKI-1 renal = test system: CAKI-1 renal
MDA-MB-231 breast = test system: MDA-MB-231 breast
OVCAR-4 ovarian = test system: OVCAR-4 ovarian
MCF7 breast = test system: MCF7 breast
SN12C renal = test system: SN12C renal
HS 578T breast = test system: HS 578T breast
MOLT-4 leukemia = test system: MOLT-4 leukemia
SK-OV-3 ovarian = test system: SK-OV-3 ovarian
SNB-19 CNS = test system: SNB-19 CNS
SF-268 CNS = test system: SF-268 CNS
PC-3 prostate = test system: PC-3 prostate
T-47D breast = test system: T-47D breast
SK-MEL-2 melanoma = test system: SK-MEL-2 melanoma
MDA-N = test system: MDA-N
LOX IMVI melanoma = test system: LOX IMVI melanoma
SNB-75 CNS = test system: SNB-75 CNS
NCI-H460 lung = test system: NCI-H460 lung

`COC1OC2COC(C)(C)OC2C2OC(C)(C)OC12` (stereo not given) showed a TGI (SK-MEL-28 melanoma) of over 100 µM, a TGI (NCI-H522 lung) of over 100 µM and a TGI (HCT-15 colon) of over 100 µM. It also gave a TGI (786-0 renal) of 52 µM, a TGI (SF-295 CNS) of over 100 µM and a TGI (EKVX NSCLC) of over 100 µM. For the same compound, the TGI (A549 NSCLC) was over 100 µM, the TGI (SW-620 colon) was over 100 µM and the TGI (HCT-116 colon) was over 100 µM. For the same compound, the TGI (OVCAR-8 ovarian) was over 100 µM, the TGI (OVCAR-3 ovarian) was over 100 µM and the TGI (MDA-MB-435) was over 100 µM. For the same compound, the TGI (U251 CNS) was over 100 µM, the TGI (NCI-H226 lung) was 76.2 µM and the TGI (KM12 colon) was over 100 µM. For the same compound, the TGI (HT29 colon) was over 100 µM, the TGI (M14 melanoma) was over 100 µM and the TGI (OVCAR-5 ovarian) was over 100 µM. It also gave a TGI (TK-10 renal) of over 100 µM, a TGI (BT-549 breast) of over 100 µM and a TGI (ACHN renal) of over 100 µM. The TGI (A498 renal) was over 100 µM, the TGI (MALME-3M melanoma) was over 100 µM and the TGI (CCRF-CEM leukemia) was 48.8 µM. The TGI (SK-MEL-5 melanoma) was over 100 µM, the TGI (UACC-62 melanoma) was over 100 µM and the TGI (NCI-H23 lung) was over 100 µM. It also gave a TGI (UACC-257 melanoma) of over 100 µM, a TGI (COLO 205 colon) of over 100 µM and a TGI (IGROV1 ovarian) of over 100 µM. For the same compound, the TGI (NCI/ADR-RES ovarian) was over 100 µM, the TGI (HCC-2998 colon) was over 100 µM and the TGI (UO-31 renal) was over 100 µM. It also gave a TGI (DU-145 prostate) of over 100 µM, a TGI (RPMI-8226 leukemia) of 93.6 µM and a TGI (K-562 leukemia) of over 100 µM. It also gave a TGI (HOP-62 NSCLC) of 61.1 µM, a TGI (RXF 393 renal) of over 100 µM and a TGI (CAKI-1 renal) of 33.1 µM. It also gave a TGI (MDA-MB-231 breast) of over 100 µM, a TGI (OVCAR-4 ovarian) of over 100 µM and a TGI (MCF7 breast) of over 100 µM. The TGI (SN12C renal) was 67.1 µM, the TGI (HS 578T breast) was 50 µM and the TGI (MOLT-4 leukemia) was 87.9 µM. It also gave a TGI (SK-OV-3 ovarian) of over 100 µM, a TGI (SNB-19 CNS) of 54.4 µM and a TGI (SF-268 CNS) of over 100 µM. The TGI (PC-3 prostate) was over 100 µM, the TGI (T-47D breast) was over 100 µM and the TGI (SK-MEL-2 melanoma) was over 100 µM. For the same compound, the TGI (MDA-N) was over 100 µM.
For `CCOC(=O)c1[nH]c2nc(SC)nc(NC)c2c1N`, the TGI (SK-MEL-28 melanoma) was over 100 µM, the TGI (NCI-H522 lung) was over 100 µM and the TGI (HCT-15 colon) was over 100 µM. The TGI (786-0 renal) was over 100 µM, the TGI (SF-295 CNS) was over 100 µM and the TGI (LOX IMVI melanoma) was over 100 µM. For the same compound, the TGI (A549 NSCLC) was over 100 µM, the TGI (SW-620 colon) was over 100 µM and the TGI (HCT-116 colon) was over 100 µM. The TGI (OVCAR-8 ovarian) was over 100 µM, the TGI (OVCAR-3 ovarian) was over 100 µM and the TGI (MDA-MB-435) was over 100 µM. It also gave a TGI (SNB-75 CNS) of over 100 µM, a TGI (NCI-H460 lung) of over 100 µM and a TGI (U251 CNS) of over 100 µM. The TGI (NCI-H226 lung) was over 100 µM, the TGI (KM12 colon) was over 100 µM and the TGI (HT29 colon) was over 100 µM. For the same compound, the TGI (M14 melanoma) was over 100 µM, the TGI (OVCAR-5 ovarian) was over 100 µM and the TGI (TK-10 renal) was over 100 µM. The TGI (BT-549 breast) was over 100 µM, the TGI (ACHN renal) was over 100 µM and the TGI (A498 renal) was over 100 µM. It also gave a TGI (MALME-3M melanoma) of over 100 µM, a TGI (CCRF-CEM leukemia) of over 100 µM and a TGI (SK-MEL-5 melanoma) of over 100 µM. The TGI (UACC-62 melanoma) was over 100 µM, the TGI (NCI-H23 lung) was over 100 µM and the TGI (UACC-257 melanoma) was over 100 µM. The TGI (COLO 205 colon) was over 100 µM, the TGI (IGROV1 ovarian) was over 100 µM and the TGI (NCI/ADR-RES ovarian) was over 100 µM. The TGI (HCC-2998 colon) was over 100 µM, the TGI (UO-31 renal) was over 100 µM and the TGI (DU-145 prostate) was over 100 µM. The TGI (RPMI-8226 leukemia) was over 100 µM, the TGI (K-562 leukemia) was over 100 µM and the TGI (HOP-62 NSCLC) was over 100 µM. It also gave a TGI (RXF 393 renal) of over 100 µM, a TGI (CAKI-1 renal) of over 100 µM and a TGI (MDA-MB-231 breast) of over 100 µM. The TGI (OVCAR-4 ovarian) was over 100 µM, the TGI (SN12C renal) was over 100 µM and the TGI (HS 578T breast) was over 100 µM. For the same compound, the TGI (MOLT-4 leukemia) was over 100 µM, the TGI (SK-OV-3 ovarian) was over 100 µM and the TGI (SNB-19 CNS) was over 100 µM. The TGI (SF-268 CNS) was over 100 µM, the TGI (PC-3 prostate) was over 100 µM and the TGI (T-47D breast) was over 100 µM. The TGI (SK-MEL-2 melanoma) was over 100 µM and the TGI (MDA-N) was over 100 µM.
